Where two headings read alike, the source gives them in different places.
Biological target: human DGAT2 (Homo sapiens (Human), UniProt Q96PD7)
Assay: DGAT2 Enzymatic Activity Assay
Settings: 13C18-triolein product by LC/MS/MS
[1] = read-out: Human DGAT2 IC50, hDGAT2 membrane prep from Sf-9 cells
[2] = Human DGAT2 IC50, hDGAT2 membrane prep from Sf-9 cells

Sequence of human DGAT2 (Q96PD7 whole entry): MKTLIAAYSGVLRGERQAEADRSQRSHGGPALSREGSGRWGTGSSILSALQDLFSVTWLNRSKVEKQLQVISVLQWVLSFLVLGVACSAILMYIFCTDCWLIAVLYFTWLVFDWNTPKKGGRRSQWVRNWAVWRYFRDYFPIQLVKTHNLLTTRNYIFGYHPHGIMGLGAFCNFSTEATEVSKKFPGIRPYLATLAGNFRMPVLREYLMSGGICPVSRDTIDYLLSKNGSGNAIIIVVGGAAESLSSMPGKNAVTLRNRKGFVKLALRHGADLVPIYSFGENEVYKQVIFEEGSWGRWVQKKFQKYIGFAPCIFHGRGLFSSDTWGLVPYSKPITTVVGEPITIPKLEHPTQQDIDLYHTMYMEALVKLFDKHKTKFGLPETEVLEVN

For Cc1cnc(Oc2ccc3nc(C(=O)NC4(C)CCS(=O)(=O)CC4)n(C)c3n2)c(OCC(F)F)c1 [Example 37, 5-[[3-(2,2-difluoroethoxy)-5-methyl-2-pyridyl]oxy]-3-methyl-N-(4-methyl-1,1-dioxo-thian-4-yl)imidazo[4,5-b]pyridine-2-carboxamide], the IC50 [1] was 0.029 µM.
With CO[C@]1(C(F)(F)F)C[C@@H](NC(=O)c2nc3ccc(Oc4ncc(Cl)cc4OCC(F)(F)F)cc3o2)C1 [Example 7, 6-[[5-chloro-3-(2,2,2-trifluoroethoxy)-2-pyridyl]oxy]-N-[3-methoxy-3-(trifluoromethyl)cyclobutyl]-1,3-benzoxazole-2-carboxamide] the IC50 [1] was 1.41 µM.
Compound Cn1c(C(=O)NC2(C)CCS(=O)(=O)CC2)nc2ccc(OCC(CC(F)(F)F)OCC(F)F)nc21 (single isomer, unassigned) [Example 63a, 5-[2-(2,2-difluoroethoxy)-4,4,4-trifluoro-butoxy]-3-methyl-N-(4-methyl-1,1-dioxo-thian-4-yl)imidazo[4,5-b]pyridine-2-carboxamide] has an IC50 [2] of 0.05 µM.
With Cc1cc2nc(C(=O)NC3(C)CCS(=O)(=O)CC3)n(C)c2nc1Oc1ncc(F)cc1OCC(F)F [Example 48, 5-[[3-(2,2-difluoroethoxy)-5-fluoro-2-pyridyl]oxy]-3,6-dimethyl-N-(4-methyl-1,1-dioxo-thian-4-yl)imidazo[4,5-b]pyridine-2-carboxamide] the IC50 [1] was 0.0063 µM.
For CC1(NC(=O)c2nc3cnc(Oc4ncc(Cl)cc4OCC(F)F)cc3s2)CCS(=O)(=O)CC1 [Example 97, 6-[[5-chloro-3-(2,2-difluoroethoxy)-2-pyridyl]oxy]-N-(4-methyl-1,1-dioxo-thian-4-yl)thiazolo[4,5-c]pyridine-2-carboxamide], the IC50 [2] was 0.0025 µM.
Cc1cc2nc(C(=O)NC3(C)CCS(=O)(=O)CC3)n(C)c2nc1Oc1ncc(F)cc1OCC(C)(F)F [Example 47, 5-[[3-(2,2-difluoropropoxy)-5-fluoro-2-pyridyl]oxy]-3,6-dimethyl-N-(4-methyl-1,1-dioxo-thian-4-yl)imidazo[4,5-b]pyridine-2-carboxamide] gave an IC50 [1] of 0.079 µM.
For Cc1nc2nc(C(=O)NC3(C)CCS(=O)(=O)CC3)n(C)c2cc1Oc1ncc(F)cc1OCC(F)(F)F [Example 87, 6-[[5-fluoro-3-(2,2,2-trifluoroethoxy)-2-pyridyl]oxy]-1,5-dimethyl-N-(4-methyl-1,1-dioxo-thian-4-yl)imidazo[4,5-b]pyridine-2-carboxamide], the IC50 [1] was 0.025 µM.
With Cn1c(C(=O)NC2(C)CCS(=O)(=O)CC2)cc2ccc(Oc3ncc(Cl)cc3OCC(F)F)nc21 [Example 99, 6-((5-Chloro-3-(2,2-difluoroethoxy)pyridin-2-yl)oxy)-1-methyl-N-(4-methyl-1,1-dioxidotetrahydro-2H-thiopyran-4-yl)-1H-pyrrolo[2,3-b]pyridine-2-carboxamide] the IC50 [2] was 0.0011 µM.
With CC1(NC(=O)c2nc3ccc(Oc4ncccc4OCC(F)(F)F)cc3s2)CCS(=O)(=O)CC1 [Example 91, N-(4-Methyl-1,1-dioxidotetrahydro-2H-thiopyran-4-yl)-6-((3-(2,2,2-trifluoroethoxy)pyridin-2-yl)oxy)benzo[d]thiazole-2-carboxamide] the IC50 [2] was 0.0013 µM.
Work on CC1(NC(=O)c2nc3cc(Oc4ncccc4OCC(F)(F)F)ccc3o2)CCS(=O)(=O)CC1 [Example 10, N-(4-methyl-1,1-dioxidotetrahydro-2H-thiopyran-4-yl)-5-((3-(2,2,2-trifluoroethoxy)pyridin-2-yl)oxy)benzo[d]oxazole-2-carboxamide] yielded an IC50 [2] of 0.941 µM.
CCC(COc1ccc2nc(C(=O)NC3(C)CCS(=O)(=O)CC3)n(C)c2n1)OCC(F)F (stereo not shown) [Example 60, 5-[2-(2,2-Difluoroethoxy)butoxy]-3-methyl-N-(4-methyl-1,1-dioxo-thian-4-yl)imidazo[4,5-b]pyridine-2-carboxamide] was tested, and the IC50 [2] was 0.003 µM.
Cc1c(Oc2ncc(Cl)cc2OCC(F)(F)F)ccc2nc(C(=O)NC3(C)CCS(=O)(=O)CC3)n(C)c12 [Example 25, 6-((5-chloro-3-(2,2,2-trifluoroethoxy)pyridin-2-yl)oxy)-1,7-dimethyl-N-(4-methyl-1,1-dioxidotetrahydro-2H-thiopyran-4-yl)-1H-benzo[d]imidazole-2-carboxamide] was tested, and the IC50 [2] was 0.0006 µM.
Work on Cc1cnc(Oc2cc3c(cn2)nc(C(=O)NC2(C)CCS(=O)(=O)CC2)n3C)c(OCC(F)F)c1 [Example 73, 6-[[3-(2,2-difluoroethoxy)-5-methyl-2-pyridyl]oxy]-1-methyl-N-(4-methyl-1,1-dioxo-thian-4-yl)imidazo[4,5-c]pyridine-2-carboxamide] yielded an IC50 [1] of 0.0091 µM.
Work on Cc1nc(Oc2ncc(Cl)cc2OCC(F)F)cc2c1nc(C(=O)NC1(C)CCS(=O)(=O)CC1)n2C [Example 74, 6-[5-chloro-3-(2,2-difluoroethoxy)pyridin-1-ium-2-yl]oxy-1,4-dimethyl-N-(4-methyl-1,1-dioxo-thian-4-yl)imidazo[4,5-c]pyridine-2-carboxamide] yielded an IC50 [1] of 0.014 µM.
Work on Cn1c(C(=O)NC2(C)CCS(=O)(=O)CC2)nc2ccc(Oc3ncc(Cl)cc3OCC(F)F)nc21 [Example 28, 5-((5-Chloro-3-(2,2-difluoroethoxy)pyridin-2-yl)oxy)-3-methyl-N-(4-methyl-1,1-dioxidotetrahydro-2H-thiopyran-4-yl)-3H-imidazo[4,5-b]pyridine-2-carboxamide] yielded an IC50 [2] of 0.0013 µM.
Cn1c(C(=O)NC2(C)CCS(=O)(=O)CC2)nc2ccc(OCC(OCC(F)F)C(F)(F)F)nc21 (single isomer, unassigned) [Example 64b, 5-[2-(2,2-difluoroethoxy)-3,3,3-trifluoro-propoxy]-3-methyl-N-(4-methyl-1,1-dioxo-thian-4-yl)imidazo[4,5-b]pyridine-2-carboxamide] was tested, and the IC50 [2] was 0.0033 µM.
Cn1c(C(=O)NC2(C)CCS(=O)(=O)CC2)nc2cnc(OCc3ncc(Cl)cc3OCC(F)F)cc21 [Example 80, 6-((5-Chloro-3-(2,2-difluoroethoxy)pyridin-2-yl)methoxy)-1-methyl-N-(4-methyl-1,1-dioxidotetrahydro-2H-thiopyran-4-yl)-1H-imidazo[4,5-c]pyridine-2-carboxamide] showed an IC50 [2] of 0.03 µM.
Compound CC1(NC(=O)c2nc3nc(Oc4ncc(Cl)cc4OCC(F)F)ccc3n2CC2(F)COC2)CCS(=O)(=O)CC1 [Example 56, 5-((5-chloro-3-(2,2-difluoroethoxy)pyridin-2-yl)oxy)-1-((3-fluorooxetan-3-yl)methyl)-N-(4-methyl-1,1-dioxidotetrahydro-2H-thiopyran-4-yl)-1H-imidazo[4,5-b]pyridine-2-carboxamide] has an IC50 [1] of 0.051 µM.
With O=C(N[C@H]1CCOC1)c1nc2ccc(Oc3ncc(Cl)cc3OCC(F)(F)F)cc2o1 [Example 5, 6-[[5-chloro-3-(2,2,2-trifluoroethoxy)-2-pyridyl]oxy]-N-[(3S)-tetrahydrofuran-3-yl]-1,3-benzoxazole-2-carboxamide] the IC50 [1] was 1.81 µM.
Work on Cn1c(C(=O)NC2(C)CCS(=O)(=O)CC2)nc2ccc(Oc3ncccc3OCC(F)(F)F)cc21 [Example 11, 1-Methyl-N-(4-methyl-1,1-dioxidotetrahydro-2H-thiopyran-4-yl)-6-((3-(2,2,2-trifluoroethoxy)pyridin-2-yl)oxy)-1H-benzo[d]imidazole-2-carboxamide] yielded an IC50 [2] of 0.0013 µM.
Cn1c(C(=O)NC2(C)CCS(=O)(=O)CC2)nc2cc(F)c(Oc3ncc(F)cc3OCC(C)(F)F)nc21 [Example 43, 5-[[3-(2,2-difluoropropoxy)-5-fluoro-2-pyridyl]oxy]-6-fluoro-3-methyl-N-(4-methyl-1,1-dioxo-thian-4-yl)imidazo[4,5-b]pyridine-2-carboxamide] showed an IC50 [1] of 0.034 µM.
Cn1c(C(=O)NC2(C)CCS(=O)(=O)CC2)nc2cc(F)c(Oc3ncc(F)cc3OCC(F)(F)F)nc21 [Example 42, 6-fluoro-5-((5-fluoro-3-(2,2,2-trifluoroethoxy)pyridin-2-yl)oxy)-3-methyl-N-(4-methyl-1,1-dioxidotetrahydro-2H-thiopyran-4-yl)-3H-imidazo[4,5-b]pyridine-2-carboxamide] was tested, and the IC50 [1] was 0.0022 µM.
CC(C)n1c(C(=O)NC2(C)CCS(=O)(=O)CC2)nc2nc(Oc3ncc(Cl)cc3OCC(F)F)ccc21 [Example 51, 5-((5-chloro-3-(2,2-difluoroethoxy)pyridin-2-yl)oxy)-1-isopropyl-N-(4-methyl-1,1-dioxidotetrahydro-2H-thiopyran-4-yl)-1H-imidazo[4,5-b]pyridine-2-carboxamide] gave an IC50 [2] of 0.533 µM.
Compound CC(C)n1c(C(=O)NC2(C)CCS(=O)(=O)CC2)nc2ccc(Oc3ncc(Cl)cc3OCC(F)F)nc21 [Example 52, 5-((5-chloro-3-(2,2-difluoroethoxy)pyridin-2-yl)oxy)-3-isopropyl-N-(4-methyl-1,1-dioxidotetrahydro-2H-thiopyran-4-yl)-3H-imidazo[4,5-b]pyridine-2-carboxamide] has an IC50 [2] of 0.0036 µM.
In the case of Cn1c(C(=O)NC2(C)CCS(=O)(=O)CC2)nc2cnc(Oc3nccnc3OCC(F)(F)F)cc21 [Example 69, 1-methyl-N-(4-methyl-1,1-dioxo-thian-4-yl)-6-[3-(2,2,2-trifluoroethoxy)pyrazin-2-yl]oxy-imidazo[4,5-c]pyridine-2-carboxamide], the IC50 [1] is reported as 0.105 µM.
For CC1(NC(=O)c2nc3ccc(Oc4ncc(Cl)cc4OCC(F)(F)F)cc3o2)CCS(=O)(=O)CC1 [Example 3, 6-[[5-chloro-3-(2,2,2-trifluoroethoxy)-2-pyridyl]oxy]-N-(4-methyl-1,1-dioxo-thian-4-yl)-1,3-benzoxazole-2-carboxamide], the IC50 [1] was 0.063 µM.
For Cn1c(C(=O)NC2(C)CCS(=O)(=O)CC2)nc2ccc(Oc3ncc(Cl)cc3OCC(F)(F)F)c(F)c21 [Example 21, 6-((5-Chloro-3-(2,2,2-trifluoroethoxy)pyridin-2-yl)oxy)-7-fluoro-1-methyl-N-(4-methyl-1,1-dioxidotetrahydro-2H-thiopyran-4-yl)-1H-benzo[d]imidazole-2-carboxamide], the IC50 [2] was 0.0023 µM.
Compound Cn1c(C(=O)N[C@H]2CCCC(F)(F)[C@@H]2O)nc2cnc(Oc3ncc(Cl)cc3OCC(F)F)cc21 [Example 75, 6-[[5-chloro-3-(2,2-difluoroethoxy)-2-pyridyl]oxy]-N-[(1S,2R)-3,3-difluoro-2-hydroxy-cyclohexyl]-1-methyl-imidazo[4,5-c]pyridine-2-carboxamide] has an IC50 [1] of 0.01 µM.

Reference: patent US20240254114A1, “PREPARATION OF FUSED AZOLE DERIVATIVES AS NOVEL DIACYLGLYCERIDE 0-ACYLTRANSFERASE 2 INHIBITORS” (Merck Sharp & Dohme LLC, priority 2022, published 2024)
